In ChEMBL document CHEMBL3885861, “Open TG-GATES”:

Organism: Rattus norvegicus
Experiment: Open TG-GATES - Regimen: Single
Assay type: toxicity, organism-based, Sprague-Dawley
Set-up: regimen Single, gender Male, age 6 weeks
Settings: in vivo, ip, 0 mg/kg, route intraperitoneal injection, dose 0 ug/Kg, dose level Control; for APTT / Bas / Eos / Fbg / Hb / Ht / Lym / MCH / MCHC / MCV / Mono / Neu / PT / Plat / RBC / Ret / WBC: tissue Blood; for KIDNEY_L / KIDNEY_R / KIDNEY_TOTAL: tissue Kidney; for LIVER: tissue Liver; for A/G / ALP / ALT / AST / BUN / CRE / Ca / Cl / DBIL / GLC / IP / K / LDH / Na / PL / RALB / TBIL / TC / TG / TP / gamma-GTP: tissue Plasma

## H-KGDRLS-OH [TNF-ALPHA]
3 h
  TERMINAL_BW: 200.6 g
  APTT: 20 s
  Bas: 0.4%
  Eos: 0.8%
  Fbg: 268.8 mg/dL
  Hb: 13 g/dL
  Ht: 40.3%
  Lym: 73.8%
  MCH: 21.6 pg
  MCHC: 32.3%
  MCV: 66.8 fL
  Mono: 3.8%
  Neu: 19.8%
  PT: 15.4 s
  Plat: 101.9 x10_4/uL
  RBC: 603.2 x10_4/ul
  Ret: 9.3%
  WBC: 95.8 x10_2/uL
  KIDNEY_L: 0.9 g
  KIDNEY_R: 0.9 g
  KIDNEY_TOTAL: 1.7 g
  LIVER: 9.3 g
  A/G: 0.9
  ALP: 1391 IU/L
  ALT: 43 IU/L
  AST: 74.8 IU/L
  BUN: 10.8 mg/dL
  CRE: 0.2 mg/dL
  Ca: 10.8 mg/dL
  Cl: 105.2 meq/L
  DBIL: 0.012 mg/dL
  GLC: 173.4 mg/dL
  IP: 9.6 mg/dL
  K: 4.1 meq/L
  LDH: 73.2 IU/L
  Na: 142.2 meq/L
  PL: 149.2 mg/dL
  RALB: 2.4 g/dL
  TBIL: 0.06 mg/dL
  TC: 79.8 mg/dL
  TG: 61.2 mg/dL
  TP: 5.3 g/dL
  gamma-GTP: 1.2 IU/L
6 h
  TERMINAL_BW: 199.4 g
  APTT: 16.7 s
  Bas: 0%
  Eos: 0.2%
  Fbg: 285 mg/dL
  Hb: 13.1 g/dL
  Ht: 40%
  Lym: 68.8%
  MCH: 21.3 pg
  MCHC: 32.6%
  MCV: 65.1 fL
  Mono: 2.8%
  Neu: 26.8%
  PT: 15.6 s
  Plat: 109.7 x10_4/uL
  RBC: 615.4 x10_4/ul
  Ret: 8.8%
  WBC: 77.4 x10_2/uL
  KIDNEY_L: 0.9 g
  KIDNEY_R: 0.9 g
  KIDNEY_TOTAL: 1.9 g
  LIVER: 8.5 g
  A/G: 0.9
  ALP: 1347.2 IU/L
  ALT: 40 IU/L
  AST: 73.6 IU/L
  BUN: 9.4 mg/dL
  CRE: 0.2 mg/dL
  Ca: 10.8 mg/dL
  Cl: 105 meq/L
  DBIL: 0.01 mg/dL
  GLC: 179.6 mg/dL
  IP: 10.1 mg/dL
  K: 4 meq/L
  LDH: 58.8 IU/L
  Na: 142.8 meq/L
  PL: 146.4 mg/dL
  RALB: 2.5 g/dL
  TBIL: 0.058 mg/dL
  TC: 78.8 mg/dL
  TG: 44 mg/dL
  TP: 5.3 g/dL
  gamma-GTP: 1.4 IU/L
9 h
  TERMINAL_BW: 195.6 g
  APTT: 18 s
  Bas: 0.4%
  Eos: 0.4%
  Fbg: 305 mg/dL
  Hb: 13.1 g/dL
  Ht: 40.5%
  Lym: 68.4%
  MCH: 20.9 pg
  MCHC: 32.5%
  MCV: 64.2 fL
  Mono: 1.6%
  Neu: 28.6%
  PT: 15.4 s
  Plat: 118.6 x10_4/uL
  RBC: 631 x10_4/ul
  Ret: 8.6%
  WBC: 77.2 x10_2/uL
  KIDNEY_L: 0.9 g
  KIDNEY_R: 0.9 g
  KIDNEY_TOTAL: 1.9 g
  LIVER: 8.2 g
  A/G: 0.9
  ALP: 1246.8 IU/L
  ALT: 42.6 IU/L
  AST: 81.6 IU/L
  BUN: 7.6 mg/dL
  CRE: 0.1 mg/dL
  Ca: 10.4 mg/dL
  Cl: 105.4 meq/L
  DBIL: 0.004 mg/dL
  GLC: 167.4 mg/dL
  IP: 9.9 mg/dL
  K: 3.5 meq/L
  LDH: 61.4 IU/L
  Na: 143.4 meq/L
  PL: 135.8 mg/dL
  RALB: 2.5 g/dL
  TBIL: 0.058 mg/dL
  TC: 74 mg/dL
  TG: 33.6 mg/dL
  TP: 5.4 g/dL
  gamma-GTP: 1.2 IU/L
24 h
  TERMINAL_BW: 211.3 g
  APTT: 17.6 s
  Bas: 0%
  Eos: 1%
  Fbg: 302 mg/dL
  Hb: 13.3 g/dL
  Ht: 40.5%
  Lym: 78%
  MCH: 21 pg
  MCHC: 32.8%
  MCV: 64 fL
  Mono: 2.8%
  Neu: 17%
  PT: 15.1 s
  Plat: 115.6 x10_4/uL
  RBC: 634 x10_4/ul
  Ret: 8.1%
  WBC: 80.3 x10_2/uL
  KIDNEY_L: 0.9 g
  KIDNEY_R: 0.9 g
  KIDNEY_TOTAL: 1.8 g
  LIVER: 10.2 g
  A/G: 0.8
  ALP: 1555.2 IU/L
  ALT: 49 IU/L
  AST: 69.8 IU/L
  BUN: 14.8 mg/dL
  CRE: 0.2 mg/dL
  Ca: 11 mg/dL
  Cl: 105.8 meq/L
  DBIL: 0.008 mg/dL
  GLC: 184.2 mg/dL
  IP: 9.1 mg/dL
  K: 4.2 meq/L
  LDH: 76.2 IU/L
  Na: 142 meq/L
  PL: 172.2 mg/dL
  RALB: 2.6 g/dL
  TBIL: 0.038 mg/dL
  TC: 93.2 mg/dL
  TG: 98.2 mg/dL
  TP: 5.6 g/dL
  gamma-GTP: 1 IU/L
